{
  "source": "ChEMBL document CHEMBL5352412",
  "about": "“Discovery of 1,2-diphenylethene derivatives as human DNA topoisomerase II catalytic inhibitors and antitumor agents” (Eur J Med Chem, 2022)",
  "key": {"HepG2 [1]": {"test_system": "HepG2", "test": "Antiproliferative activity against human HepG2 cells incubated for 72 hrs by CCK8 assay", "assay_type": "functional, cell-based", "conditions": "Homo sapiens, HepG2, 72 h"}, "[2]": {"molecular_target": "DNA topoisomerase 2-alpha (Homo sapiens, UniProt P11388)", "sequence (P11388 whole entry)": "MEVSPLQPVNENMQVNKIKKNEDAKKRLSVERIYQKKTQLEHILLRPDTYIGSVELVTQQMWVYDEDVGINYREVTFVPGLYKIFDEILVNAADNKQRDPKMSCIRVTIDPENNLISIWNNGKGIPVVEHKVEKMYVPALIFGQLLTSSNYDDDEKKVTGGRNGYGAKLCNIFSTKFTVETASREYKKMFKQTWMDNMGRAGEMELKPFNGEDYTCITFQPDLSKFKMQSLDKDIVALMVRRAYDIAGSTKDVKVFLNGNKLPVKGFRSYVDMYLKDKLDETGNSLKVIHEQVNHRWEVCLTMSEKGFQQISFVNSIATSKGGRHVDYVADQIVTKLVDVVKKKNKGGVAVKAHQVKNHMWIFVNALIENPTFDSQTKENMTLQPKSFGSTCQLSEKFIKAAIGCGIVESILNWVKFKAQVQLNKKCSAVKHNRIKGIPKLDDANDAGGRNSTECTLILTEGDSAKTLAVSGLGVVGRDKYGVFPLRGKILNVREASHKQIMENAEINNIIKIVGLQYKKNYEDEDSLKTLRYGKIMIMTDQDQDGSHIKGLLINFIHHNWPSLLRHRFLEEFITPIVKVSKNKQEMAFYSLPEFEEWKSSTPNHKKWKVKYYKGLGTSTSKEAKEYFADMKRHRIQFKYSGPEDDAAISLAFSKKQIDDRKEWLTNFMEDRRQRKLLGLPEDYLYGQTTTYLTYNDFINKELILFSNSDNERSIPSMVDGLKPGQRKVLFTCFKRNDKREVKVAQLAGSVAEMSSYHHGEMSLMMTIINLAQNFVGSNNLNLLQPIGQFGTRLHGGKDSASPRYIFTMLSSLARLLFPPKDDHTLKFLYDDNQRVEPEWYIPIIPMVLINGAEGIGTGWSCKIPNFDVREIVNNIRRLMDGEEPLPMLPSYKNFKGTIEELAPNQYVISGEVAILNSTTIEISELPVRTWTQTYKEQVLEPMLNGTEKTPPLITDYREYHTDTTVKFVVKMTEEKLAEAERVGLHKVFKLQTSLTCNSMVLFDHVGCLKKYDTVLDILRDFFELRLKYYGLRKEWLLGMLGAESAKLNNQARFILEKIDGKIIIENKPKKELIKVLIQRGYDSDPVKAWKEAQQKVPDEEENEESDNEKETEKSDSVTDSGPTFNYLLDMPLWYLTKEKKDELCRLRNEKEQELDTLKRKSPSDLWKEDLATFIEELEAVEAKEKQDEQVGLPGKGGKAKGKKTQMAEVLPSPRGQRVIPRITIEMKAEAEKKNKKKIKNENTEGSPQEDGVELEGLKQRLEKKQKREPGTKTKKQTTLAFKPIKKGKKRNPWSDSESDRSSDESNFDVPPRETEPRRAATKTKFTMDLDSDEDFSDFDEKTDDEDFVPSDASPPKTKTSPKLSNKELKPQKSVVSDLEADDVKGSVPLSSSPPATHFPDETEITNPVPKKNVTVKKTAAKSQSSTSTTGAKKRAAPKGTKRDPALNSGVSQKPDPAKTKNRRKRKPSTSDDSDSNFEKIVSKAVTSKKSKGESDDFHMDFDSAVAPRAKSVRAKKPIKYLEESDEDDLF", "test": "Inhibition of human topoisomerase 2-alpha assessed as reduction in relaxation of pBR322 DNA at 25 uM measured after 30 mins by agarose gel electrophoresis method relative to control"}, "HeLa": {"test_system": "HeLa", "test": "Antiproliferative activity against human HeLa cells incubated for 72 hrs by CCK8 assay", "assay_type": "functional, cell-based"}, "[3]": {"test": "Antiproliferative activity against human CCL-226 cells incubated for 72 hrs by CCK8 assay", "assay_type": "toxicity, cell-based"}, "[4]": {"test": "Antiproliferative activity against human HL7702 cells incubated for 72 hrs by CCK8 assay", "assay_type": "toxicity, cell-based", "conditions": "HL7702 (L02) cells"}, "Homo sapiens [5]": {"species": "Homo sapiens", "test": "Selectivity index, ratio of IC50 for human CCL-226 cells to IC50 for human PC-3 cells"}, "Homo sapiens [6]": {"species": "Homo sapiens", "test": "Selectivity index, ratio of IC50 for human CCL-226 cells to IC50 for human MDA-MB-231 cells"}, "[7]": {"test": "Selectivity index, ratio of IC50 for human BEAS-2B cells to IC50 for human PC-3 cells", "assay_type": "toxicity", "conditions": "BEAS-2B cells versus PC-3 cells, read-out: Ratio IC50"}, "[8]": {"test": "Selectivity index, ratio of IC50 for human BEAS-2B cells to IC50 for human HepG2 cells", "assay_type": "toxicity", "conditions": "BEAS-2B cells versus HepG2 cells, read-out: Ratio IC50"}, "[9]": {"test": "Selectivity index, ratio of IC50 for human HL-7702 cells to IC50 for human PC-3 cells", "assay_type": "toxicity", "conditions": "HL-7702 cells versus PC-3 cells, read-out: Ratio IC50"}, "[10]": {"test": "Selectivity index, ratio of IC50 for human HL-7702 cells to IC50 for human A549 cells", "assay_type": "toxicity", "conditions": "HL-7702 cells versus A549 cells, read-out: Ratio IC50"}, "HepG2 [11]": {"test_system": "HepG2", "test": "Upregulation of gamma-H2AX level in human HepG2 cells incubated for 4 hrs by Western blotting analysis", "assay_type": "functional, cell-based"}, "HepG2 [12]": {"test_system": "HepG2", "test": "Induction of cell cycle arrest in human HepG2 cells assessed as accumulation of cells at G2/M phase at 1 uM incubated for 24 hrs by PI staining based flow cytometry analysis (reference value: 17.5%)", "assay_type": "functional"}, "HepG2 [13]": {"test_system": "HepG2", "test": "Induction of apoptosis in human HepG2 cells assessed as viable cells at 1 uM incubated for 24 hrs by annexin-V FITC and PI staining based flow cytometry analysis (reference value: 93.8%)", "assay_type": "functional", "conditions": "read-out: Activity"}, "[14]": {"test": "Toxicity in C57BL/6J mouse assessed as change in body weight at 500 mg/kg administered via gavage twice at day 1 and measured for 7 days", "assay_type": "organism-based", "conditions": "in vivo, po, 168 h, time 7 day"}},
  "note": "pIC50: −log10 of the molar value. Calls of active or inactive are those of the source. No cut-off for these calls is given here.",
  "data": [
    {"compound": "O=C(CCc1ccccc1)Nc1ccc(-c2ccc3cc(O)ccc3c2)cc1", "values": [
      {"measurement": "pIC50", "setting": "HepG2 [1]", "result": 6.52},
      {"measurement": "inhibition", "setting": "[2]", "result": 84.6, "unit": "%"},
      {"measurement": "pIC50", "setting": "HeLa", "result": 7.00},
      {"measurement": "IC50 at 72 h", "setting": "[3]", "result": "> 50000", "unit": "nM"},
      {"measurement": "IC50 at 72 h", "setting": "[4]", "result": 16700, "unit": "nM"},
      {"measurement": "Ratio IC50", "setting": "Homo sapiens [5]", "result": "> 52.1"},
      {"measurement": "Ratio IC50", "setting": "Homo sapiens [6]", "result": "> 52.1"},
      {"measurement": "selectivity ratio", "setting": "[7]", "result": "> 52.1"},
      {"measurement": "selectivity ratio", "setting": "[8]", "result": "> 52.1"},
      {"measurement": "selectivity ratio", "setting": "[9]", "result": "> 52.1"},
      {"measurement": "selectivity ratio", "setting": "[10]", "result": "> 52.1"},
      {"measurement": "Activity", "setting": "HepG2 [11]", "result": "inactive"},
      {"measurement": "Activity", "setting": "HepG2 [12]", "result": 84.1, "unit": "%"},
      {"measurement": "viability at 1 µM", "setting": "HepG2 [13]", "result": 29.2, "unit": "%"},
      {"measurement": "Activity", "setting": "[14]", "result": "Non-Toxic"}
    ]}
  ]
}
